Biological target: T1, STAT6 (Homo sapiens, UniProt P42226)
T1 construct: stably transfected HaCaT keratinocyte cell line, which expresses NanoLuc luciferase reporter gene under the transcriptional control of the STAT6 responsive promoter; endogenous in cells; host or cells: HaCaT keratinocyte reporter cell line (stably transfected with a NanoLuc reporter)
T1 sequence (P42226 1-847): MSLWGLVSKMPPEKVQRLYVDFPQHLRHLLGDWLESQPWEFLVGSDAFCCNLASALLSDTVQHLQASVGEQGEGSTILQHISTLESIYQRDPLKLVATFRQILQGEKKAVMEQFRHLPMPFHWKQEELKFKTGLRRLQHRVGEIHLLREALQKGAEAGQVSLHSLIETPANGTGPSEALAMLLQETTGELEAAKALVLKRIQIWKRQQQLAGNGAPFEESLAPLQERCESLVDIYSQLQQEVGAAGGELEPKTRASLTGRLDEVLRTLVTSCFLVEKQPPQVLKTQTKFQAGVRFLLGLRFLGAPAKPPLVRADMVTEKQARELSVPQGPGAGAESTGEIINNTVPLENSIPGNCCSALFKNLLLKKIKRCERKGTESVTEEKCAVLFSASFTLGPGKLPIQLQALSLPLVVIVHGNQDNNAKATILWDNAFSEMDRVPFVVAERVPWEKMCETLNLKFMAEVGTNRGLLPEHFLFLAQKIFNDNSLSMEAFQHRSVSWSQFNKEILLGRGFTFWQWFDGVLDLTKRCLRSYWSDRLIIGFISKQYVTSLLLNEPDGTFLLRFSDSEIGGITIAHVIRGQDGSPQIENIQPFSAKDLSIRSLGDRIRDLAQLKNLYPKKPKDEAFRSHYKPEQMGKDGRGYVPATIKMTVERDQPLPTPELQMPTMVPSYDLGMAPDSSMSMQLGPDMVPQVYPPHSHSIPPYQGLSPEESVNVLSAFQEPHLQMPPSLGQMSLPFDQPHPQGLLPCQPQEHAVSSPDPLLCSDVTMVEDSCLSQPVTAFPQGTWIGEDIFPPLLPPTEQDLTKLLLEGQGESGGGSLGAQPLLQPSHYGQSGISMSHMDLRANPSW
Test: STAT6 Reporter Luciferase Assay (IL-13 stimulated HaCaT keratinocyte NanoLuc reporter cells)
Format: cell-based
Settings: IL-13 stimulated HaCaT STAT6 NanoLuc reporter cells; read-out: Reporter EC50
In short: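 Stably transfected HaCaT cells carrying NanoLuc under the STAT6-responsive IL-13Ra2 promoter were pre-treated with compound (11-point, 4-fold series, duplicate) for 2 h at 37 °C, then stimulated with 0.12 nM IL-13 for 4 h. Nano-Glo luminescence was read after 15 min.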

| Compound | EC50 |
| --- | --- |
| CC(C)n1nc(C(=O)NCc2ccc(NC(=O)N3CCC[C@@H](N(C)C)C3)c(F)c2)c2c1[C@@H](C)CN(c1ccc(C(=O)N(C)C)cc1)C2 [Example 682, (S)-N-(4-((R)-3-(dimethylamino)piperidine-1-carboxamido)-3-fluorobenzyl)-5-(4-(dimethylcarbamoyl)phenyl)-1-isopropyl-7-methyl-4,5,6,7-tetrahydro-1H-pyrazolo[4,3-c]pyridine-3-carboxamide] | 4 nM |
| CC(C)n1nc(C(=O)NCc2ccc(NC(=O)N3CCC[C@H](N(C)C)C3)c(F)c2)c2c1[C@@H](C)CN(c1ccc(C(=O)N(C)C)cc1)C2 [Example 683, (S)-N-(4-((S)-3-(dimethylamino)piperidine-1-carboxamido)-3-fluorobenzyl)-5-(4-(dimethylcarbamoyl)phenyl)-1-isopropyl-7-methyl-4,5,6,7-tetrahydro-1H-pyrazolo[4,3-c]pyridine-3-carboxamide] | 3 nM |
| CC(C)n1nc(C(=O)NCc2ccc(NC(=O)N3CC[C@H](CN(C)C)C3)c(F)c2)c2c1[C@@H](C)CN(c1ccc(C(=O)N(C)C)cc1)C2 [Example 684, (S)-N-(4-((R)-3-((dimethylamino)methyl)pyrrolidine-1-carboxamido)-3-fluorobenzyl)-5-(4-(dimethylcarbamoyl)phenyl)-1-isopropyl-7-methyl-4,5,6,7-tetrahydro-1H-pyrazolo[4,3-c]pyridine-3-carboxamide] | 2 nM |
| CC(C)n1nc(C(=O)NCc2ccc(NC(=O)NC3(C)CNC3)c(F)c2)c2c1[C@@H](C)CN(c1ccc(C(=O)N(C)C)cc1)C2 [Example 685, (S)-5-(4-(dimethylcarbamoyl)phenyl)-N-(3-fluoro-4-(3-(3-methylazetidin-3-yl)ureido)benzyl)-1-isopropyl-7-methyl-4,5,6,7-tetrahydro-1H-pyrazolo[4,3-c]pyridine-3-carboxamide] | 2 nM |
| CC(C)n1nc(C(=O)NCc2ccc(NC(=O)N3CCN(C)[C@H](C)C3)c(F)c2)c2c1[C@@H](C)CN(c1ccc(C(=O)N(C)C)cc1)C2 [Example 686, (S)-5-(4-(dimethylcarbamoyl)phenyl)-N-(4-((R)-3,4-dimethylpiperazine-1-carboxamido)-3-fluorobenzyl)-1-isopropyl-7-methyl-4,5,6,7-tetrahydro-1H-pyrazolo[4,3-c]pyridine-3-carboxamide] | 1 nM |
| CC(C)n1nc(C(=O)NCc2ccc(NC(=O)N3CCN4CCCC[C@@H]4C3)c(F)c2)c2c1[C@@H](C)CN(c1ccc(C(=O)N(C)C)cc1)C2 [Example 687, (R)-N-(4-(((S)-5-(4-(dimethylcarbamoyl)phenyl)-1-isopropyl-7-methyl-4,5,6,7-tetrahydro-1H-pyrazolo[4,3-c]pyridine-3-carboxamido)methyl)-2-fluorophenyl)octahydro-2H-pyrido[1,2-a]lpyrazine-2-carboxamide] | 1 nM |
| COC[C@H]1CN(C(=O)Nc2ccc(CNC(=O)c3nn(C(C)C)c4c3CN(c3ccc(C(=O)N(C)C)cn3)C[C@@H]4C)cc2F)CCN1 [Example 688, (S)-5-(5-(dimethylcarbamoyl)pyridin-2-yl)-N-(3-fluoro-4-((R)-3-(methoxymethyl)piperazine-1-carboxamido)benzyl)-1-isopropyl-7-methyl-4,5,6,7-tetrahydro-1H-pyrazolo[4,3-c]pyridine-3-carboxamide] | 1 nM |
| COC[C@H]1CN(C(=O)Nc2ccc(CNC(=O)c3nn(C(C)C)c4c3CN(c3ccc(C(=O)N(C)C)cc3)C[C@@H]4C)cc2F)CCN1 [Example 689, (S)-5-(4-(dimethylcarbamoyl)phenyl)-N-(3-fluoro-4-((R)-3-(methoxymethyl)piperazine-1-carboxamido)benzyl)-1-isopropyl-7-methyl-4,5,6,7-tetrahydro-1H-pyrazolo[4,3-c]pyridine-3-carboxamide] | 1 nM |
| CC(C)n1nc(C(=O)NCc2ccc(NC(=O)N3CCN4CCC[C@@H]4C3)c(F)c2)c2c1[C@@H](C)CN(c1ccc(C(=O)N(C)C)cn1)C2 [Example 690, (S)-5-(5-(dimethylcarbamoyl)pyridin-2-yl)-N-(3-fluoro-4-((R)-octahydropyrrolo[1,2-a]lpyrazine-2-carboxamido)benzyl)-1-isopropyl-7-methyl-4,5,6,7-tetrahydro-1H-pyrazolo[4,3-c]pyridine-3-carboxamide] | 1 nM |
| CC(C)n1nc(C(=O)NCc2ccc(NC(=O)N3CCN4CCC[C@@H]4C3)cc2)c2c1[C@@H](C)CN(c1ccc(C(=O)N(C)C)cn1)C2 [Example 691, (S)-5-(5-(dimethylcarbamoyl)pyridin-2-yl)-1-isopropyl-7-methyl-N-(4-((R)-octahydropyrrolo[1,2-a]pyrazine-2-carboxamido)benzyl)-4,5,6,7-tetrahydro-1H-pyrazolo[4,3-c]pyridine-3-carboxamide] | 1 nM |
| CC(C)n1nc(C(=O)NCc2ccc(NC(=O)N(C)CCC(=O)O)c(F)c2)c2c1[C@@H](C)CN(c1ccc(C(=O)N(C)C)cc1)C2 [Example 733, (S)-3-(3-(4-((5-(4-(dimethylcarbamoyl)phenyl)-1-isopropyl-7-methyl-4,5,6,7-tetrahydro-1H-pyrazolo[4,3-c]pyridine-3-carboxamido)methyl)-2-fluorophenyl)-1-methylureido)propanoic acid] | 342 nM |
| CC(C)n1nc(C(=O)NCc2ccc(NC(=O)N3CCC(C(=O)O)CC3)c(F)c2)c2c1[C@@H](C)CN(c1ccc(C(=O)N(C)C)cc1)C2 [Example 734, (S)-1-((4-((5-(4-(dimethylcarbamoyl)phenyl)-1-isopropyl-7-methyl-4,5,6,7-tetrahydro-1H-pyrazolo[4,3-c]pyridine-3-carboxamido)methyl)-2-fluorophenyl)carbamoyl)piperidine-4-carboxylic acid] | 38 nM |
| CC(C)n1nc(C(=O)NCc2ccc(NC(=O)N3CCN(C)[C@@H](C)C3)cc2)c2c1[C@@H](C)CN(c1ccc(C(=O)N(C)C)cc1)C2 [Example 735, (S)-5-(4-(dimethylcarbamoyl)phenyl)-N-(4-((S)-3,4-dimethylpiperazine-1-carboxamido)benzyl)-1-isopropyl-7-methyl-4,5,6,7-tetrahydro-1H-pyrazolo[4,3-c]pyridine-3-carboxamide] | 1 nM |
| CC(C)n1nc(C(=O)NCc2ccc(NC(=O)N3CC[C@@H](CN(C)C)C3)cc2)c2c1[C@@H](C)CN(c1ccc(C(=O)N(C)C)cc1)C2 [Example 736, (S)-N-(4-((S)-3-((dimethylamino)methyl)pyrrolidine-1-carboxamido)benzyl)-5-(4-(dimethylcarbamoyl)phenyl)-1-isopropyl-7-methyl-4,5,6,7-tetrahydro-1H-pyrazolo[4,3-c]pyridine-3-carboxamide] | 1 nM |
| CC(C)n1nc(C(=O)NCc2ccc(NC(=O)N3CCN4CCCC[C@H]4C3)cc2)c2c1[C@@H](C)CN(c1ccc(C(=O)N(C)C)cc1)C2 [Example 737, (S)-N-(4-(((S)-5-(4-(dimethylcarbamoyl)phenyl)-1-isopropyl-7-methyl-4,5,6,7-tetrahydro-1H-pyrazolo[4,3-c]pyridine-3-carboxamido)methyl)phenyl)octahydro-2H-pyrido[1,2-a]pyrazine-2-carboxamide] | 1 nM |
| CC(C)n1nc(C(=O)NCc2ccc(NC(=O)N3CCC4(CC3)CN(C)CCO4)cc2)c2c1[C@@H](C)CN(c1ccc(C(=O)N(C)C)cc1)C2 [Example 738, (S)-N-(4-((5-(4-(dimethylcarbamoyl)phenyl)-1-isopropyl-7-methyl-4,5,6,7-tetrahydro-1H-pyrazolo[4,3-c]pyridine-3-carboxamido)methyl)phenyl)-4-methyl-1-oxa-4,9-diazaspiro[5.5]undecane-9-carboxamide] | 1 nM |
| CC(C)n1nc(C(=O)NCc2ccc(NC(=O)NC3(C)CNC3)cc2)c2c1[C@@H](C)CN(c1ccc(C(=O)N(C)C)cc1)C2 [Example 739, (S)-5-(4-(dimethylcarbamoyl)phenyl)-1-isopropyl-7-methyl-N-(4-(3-(3-methylazetidin-3-yl)ureido)benzyl)-4,5,6,7-tetrahydro-1H-pyrazolo[4,3-c]pyridine-3-carboxamide] | 2 nM |
| CC(C)n1nc(C(=O)NCc2ccc(NC(=O)N3CCC4(CC3)CCN4C)cc2)c2c1[C@@H](C)CN(c1ccc(C(=O)N(C)C)cc1)C2 [Example 740, (S)-5-(4-(dimethylcarbamoyl)phenyl)-1-isopropyl-7-methyl-N-(4-(1-methyl-1,7-diazaspiro[3.5]nonane-7-carboxamido)benzyl)-4,5,6,7-tetrahydro-1H-pyrazolo[4,3-c]pyridine-3-carboxamide] | 2 nM |
